Data taken from patent publication US8008305B2, “TAAR1 ligands” (Hoffmann-La Roche Inc., priority 2007, dated 2011).

Each compound was assayed against T1, TAAR1 (Mus musculus, UniProt Q923Y8) (assay: Radioligand binding ([3H]-rac-2-(1,2,3,4-tetrahydro-1-naphthyl)-2-imidazoline) on membranes of HEK293 cells stably expressing TAAR1). Conditions: TAAR1 binding assay; species not given; read-out: calculated Kd value of the radioligand.
T1 construct: expressed in transfected cells; host or cells: HEK293 cells (ATCC # CRL-1573), stably transfected with pIRESneo2 expression plasmid; membranes prepared
T1 sequence (Q923Y8 whole entry): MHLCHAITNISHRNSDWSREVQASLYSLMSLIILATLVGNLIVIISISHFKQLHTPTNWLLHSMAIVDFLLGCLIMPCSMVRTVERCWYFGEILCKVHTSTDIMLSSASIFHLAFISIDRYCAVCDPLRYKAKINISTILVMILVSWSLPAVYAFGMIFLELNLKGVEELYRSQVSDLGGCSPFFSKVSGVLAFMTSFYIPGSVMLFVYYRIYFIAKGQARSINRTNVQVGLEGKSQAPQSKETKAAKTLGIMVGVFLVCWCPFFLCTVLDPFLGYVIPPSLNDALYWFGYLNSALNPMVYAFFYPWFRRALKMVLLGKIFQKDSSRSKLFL
Protocol: Construction of TAAR Expression Plasmids and Stably Transfected Cell Lines
For the construction of expression plasmids the coding sequences of human, rat and mouse TAAR 1 were amplified from genomic DNA essentially as described by Lindemann et al.. The Expand High Fidelity PCR System (Roche Diagnostics) was used with 1.5 mM Mg^2+ and purified PCR products were cloned into pCR2.1-TOPO cloning vector (Invitrogen) following the instructions of the manufacturer. PCR products were subcloned into the pIRESneo2 vector (BD Clontech, Palo Alto, Calif.), and expression vectors were sequence verified before introduction in cell lines.
HEK293 cells (ATCC # CRL-1573) were cultured essentially as described Lindemann et al. (2005). For the generation of stably transfected cell lines HEK293 cells were transfected with the pIRESneo2 expression plasmids containing the TAAR coding sequences (described above) with Lipofectamine 2000 (Invitrogen) according to the instructions of the manufacturer, and 24 hrs post transfection the culture medium was supplemented with 1 mg/ml G418 (Sigma, Buchs, Switzerland). After a culture period of about 10 d clones were isolated, expanded and tested for responsiveness to trace amines (all compounds purchased from Sigma) with the cAMP Biotrak Enzyme immunoassay (EIA) System (Amersham) following the non-acetylation EIA procedure provided by the manufacturer.
Membrane Preparation and Radioligand Binding
Cells at confluence were rinsed with ice-cold phosphate buffered saline without Ca^2+ and Mg^2+ containing 10 mM EDTA and pelleted by centrifugation at 1000 rpm for 5 min at 4° C. The pellet was then washed twice with ice-cold phosphate buffered saline and cell pellet was frozen immediately by immersion in liquid nitrogen and stored until use at −80° C. Cell pellet was then suspended in 20 ml HEPES-NaOH (20 mM), pH 7.4 containing 10 mM EDTA, and homogenized with a Polytron (PT 3000, Kinematica) at 10,000 rpm for 10 s. The homogenate was centrifuged at 48,000×g for 30 min at 4° C. and the pellet resuspended in 20 ml HEPES-NaOH (20 mM), pH 7.4 containing 0.1 mM EDTA (buffer A), and homogenized with a Polytron at 10,000 rpm for 10 s. The homogenate was then centrifuged at 48,000×g for 30 min at 4° C. and the pellet resuspended in 20 ml buffer A, and homogenized with a Polytron at 10,000 rpm for 10 s. Protein concentration was determined by the method of Pierce (Rockford, Ill.). The homogenate was then centrifuged at 48,000×g for 10 min at 4° C., resuspended in HEPES-NaOH (20 mM), pH 7.0 including MgCl2 (10 mM) and […] homogenized with a Polytron at 10,000 rpm for 10 s.
Binding assay was performed at 4° C. in a final volume of 1 ml, and with an incubation time of 30 min. The radioligand [^3H]-rac-2-(1,2,3,4-tetrahydro-1-naphthyl)-2-imidazoline was used at a concentration equal to the calculated Kd value of 60 nM to give a bound at around 0.1% of the total added radioligand concentration, and a specific binding which represented approximately 70-80% of the total binding. Non-specific binding was defined as the amount of [^3H]-rac-2-(1,2,3,4-tetrahydro-1-naphthyl)-2-imidazoline bound in the presence of the appropriate unlabelled ligand (10 μM). Competing ligands were tested in a wide range of concentrations (10 pM-30 μM). […] Each experiment was performed in duplicate. All incubations were terminated by rapid filtration through UniFilter-96 plates (Packard Instrument Company) and glass filter GF/C, pre-soaked for at least 2 h in polyethylenimine 0.3%, and using a Filtermate 96 Cell Harvester (Packard Instrument Company). The tubes and filters were then washed 3 times with 1 ml aliquots of cold buffer B. Filters were not dried and soaked in Ultima gold (45 μl/well, Packard Instrument Company) and bound radioactivity was counted by a TopCount Microplate Scintillation Counter (Packard Instrument Company).

Compound | Kd [nM]
c1ccc2c(c1)CCCC2C1=NCCN1 (racemic) [[^3H]-rac-2-(1,2,3,4-tetrahydro-1-naphthyl)-2-imidazoline, reference compound] | 60

Same assay, conditions: mouse TAAR1; radioligand at 60 nM, 4° C., 30 min incubation

Compound | Ki [µM]
CN1CCN(c2ccc(C(=O)NCCc3ccccc3)cn2)CC1 [A, 6-(4-methyl-piperazin-1-yl)-N-phenethyl-nicotinamide, reference compound] | 0.044
CN1CCN(c2ccc(C(=O)NCc3ccccc3)cn2)CC1 [Example 1, N-Benzyl-6-(4-methyl-piperazin-1-yl)-nicotinamide] | 0.071
CN1CCN(c2ccc(C(=O)NCc3ccc(Cl)cc3)cn2)CC1 [Example 2] | 0.013
CN1CCN(c2ccc(C(=O)NCCc3ccc(Cl)cc3)cn2)CC1 [Example 6, N-[2-(4-Chloro-phenyl)-ethyl]-6-(4-methyl-piperazin-1-yl)-nicotinamide] | 0.005
CN1CCN(c2ccc(C(=O)NCCc3cccc(Cl)c3)cn2)CC1 [Example 7, N-[2-(3-Chloro-phenyl)-ethyl]-6-(4-methyl-piperazin-1-yl)-nicotinamide] | 0.027
CN1CCN(c2ccc(C(=O)NCCc3cccc(C(F)(F)F)c3)cn2)CC1 [Example 8, 6-(4-Methyl-piperazin-1-yl)-N-[2-(3-trifluoromethyl-phenyl)-ethyl]-nicotinamide] | 0.01
COc1ccc(CCNC(=O)c2ccc(N3CCN(C)CC3)nc2)cc1 [Example 9, N-[2-(4-Methoxy-phenyl)-ethyl]-6-(4-methyl-piperazin-1-yl)-nicotinamide] | 0.091
COc1cccc(CCNC(=O)c2ccc(N3CCN(C)CC3)nc2)c1 [Example 10, N-[2-(3-Methoxy-phenyl)-ethyl]-6-(4-methyl-piperazin-1-yl)-nicotinamide] | 0.049
CN1CCN(c2ccc(C(=O)NCCc3ccc4c(c3)OCO4)cn2)CC1 [Example 11, N-(2-Benzo[1,3]dioxol-5-yl-ethyl)-6-(4-methyl-piperazin-1-yl)-nicotinamide] | 0.043
CN1CCN(c2ccc(C(=O)NCCc3ccc(-c4ccccc4)cc3)cn2)CC1 [Example 12, N-(2-Biphenyl-4-yl-ethyl)-6-(4-methyl-piperazin-1-yl)-nicotinamide] | 0.028
CN1CCN(c2ccc(C(=O)NCCc3ccc(Oc4ccccc4)cc3)cn2)CC1 [Example 13, 6-(4-Methyl-piperazin-1-yl)-N-[2-(4-phenoxy-phenyl)-ethyl]-nicotinamide] | 0.004
CN1CCN(c2ccc(C(=O)NCCc3cccc(Oc4ccccc4)c3)cn2)CC1 [Example 14, 6-(4-Methyl-piperazin-1-yl)-N-[2-(3-phenoxy-phenyl)-ethyl]-nicotinamide] | 0.068
CN1CCN(c2ccc(C(=O)NCCc3ccc(OCc4ccccc4)cc3)cn2)CC1 [Example 15, N-[2-(4-Benzyloxy-phenyl)-ethyl]-6-(4-methyl-piperazin-1-yl)-nicotinamide] | 0.006
CN1CCN(c2ccc(C(=O)NCCc3cn(C)c4ccccc34)cn2)CC1 [Example 18, N-[2-(1-Methyl-1H-indol-3-yl)-ethyl]-6-(4-methyl-piperazin-1-yl)-nicotinamide] | 0.023
CN1CCC(Oc2ccc(C(=O)NCCc3ccc(Oc4ccccc4)cc3)cn2)CC1 [Example 24, 6-(1-Methyl-piperidin-4-yloxy)-N-[2-(4-phenoxy-phenyl)-ethyl]-nicotinamide] | 0.019

More lines, now with the values ahead:

Ki [µM] | Compound
0.081 | O=C(NCCc1ccc(Cl)cc1)c1ccc(N2CCNCC2)nc1 [Example 26, N-[2-(4-Chloro-phenyl)-ethyl]-6-piperazin-1-yl-nicotinamide]
0.016 | O=C(NCCc1ccc(Oc2ccccc2)cc1)c1ccc(N2CCNCC2)nc1 [Example 28, N-[2-(4-Phenoxy-phenyl)-ethyl]-6-piperazin-1-yl-nicotinamide]
0.071 | O=C(NCCc1cccc(Oc2ccccc2)c1)c1ccc(N2CCNCC2)nc1 [Example 29, N-[2-(3-Phenoxy-phenyl)-ethyl]-6-piperazin-1-yl-nicotinamide]
0.028 | O=C(NCCc1ccc(OCc2ccccc2)cc1)c1ccc(N2CCNCC2)nc1 [Example 30, N-[2-(4-Benzyloxy-phenyl)-ethyl]-6-piperazin-1-yl-nicotinamide]
0.006 | CN1CCN(c2ncc(C(=O)NCCc3ccc(Cl)cc3)cc2Br)CC1 [Example 31, 5-Bromo-N-[2-(4-chloro-phenyl)-ethyl]-6-(4-methyl-piperazin-1-yl)-nicotinamide]
0.005 | CN1CCN(c2ncc(C(=O)NCCc3ccc(Oc4ccccc4)cc3)cc2Br)CC1 [Example 32, 5-Bromo-6-(4-methyl-piperazin-1-yl)-N-[2-(4-phenoxy-phenyl)-ethyl]-nicotinamide]
0.019 | O=C(NCCc1ccc(Cl)cc1)c1cnc(N2CCNCC2)c(Br)c1 [Example 33, 5-Bromo-N-[2-(4-chloro-phenyl)-ethyl]-6-piperazin-1-yl-nicotinamide]
0.009 | O=C(NCCc1ccc(Oc2ccccc2)cc1)c1cnc(N2CCNCC2)c(Br)c1 [Example 34, 5-Bromo-N-[2-(4-phenoxy-phenyl)-ethyl]-6-piperazin-1-yl-nicotinamide]
0.012 | CN1CCN(c2ccc(C(=O)NCCC3CCCCC3)cn2)CC1 [Example 54, N-(2-Cyclohexyl-ethyl)-6-(4-methyl-piperazin-1-yl)-nicotinamide]
0.062 | CN1CCN(c2ccc(C(=O)NCC3CCCCC3)cn2)CC1 [Example 55, N-Cyclohexylmethyl-6-(4-methyl-piperazin-1-yl)-nicotinamide]
